Reference: patent US20210179655A1, “Prodrugs of a JAK Inhibitor Compound for Treatment of Gastrointestinal Inflammatory Disease” (THERAVANCE BIOPHARMA R&D IP, LLC, priority 2015, published 2021)

Key:
[1] = Metabolic stability of comparison compounds in rat colon content; assay type: in vitro ADME; details: 10 μM in rat colonic content, up to 120 min
Description: Colonic fecal content was harvested from a naïve male Sprague Dawley rat and was diluted 1:10 (1 gram to 9 mL phosphate buffer) and then homogenized using a handheld Omni Tissue Master. […] A 5 μL aliquot of diluted test compound was spiked into 300 μL of rat colonic content homogenate to begin the reaction at 37° C. Aliquots (50 μL) were removed from the incubation at the following time points (0, 15, 50, 85, and 120 min) and added into 200 μL of ACN with 3% formic acid and an internal standard molecule. […] All samples were centrifuged at 2000×g for 10 min after which 50 μL of supernatant was diluted into 150 μL of water and analyzed using a Thermo Q-Exactive LC-MS system. GraphPad Prism and Microsoft Excel were used to tabulate and plot the data.

[2] = test system: oxazolone-induced colitis; test: Mouse model of oxazolone-induced colitis; assay type: in vivo
Description: Oxazolone-induced colitis is an experimental model that has a histological resemblance to human ulcerative colitis (Heller et al. […], 2002, 17, 629-638). Adult BALB/C mice (25-28 g, 9-12 weeks of age) from BioNeeds (India) were used in the assay. On day 1, animals were lightly anesthetized with isoflurane and the hairs between the shoulder were carefully removed before oxazolone (6 mg/mouse, 100 μL, 4:1 acetone: olive oil formulation) or vehicle solution was slowly applied for skin sensitization. Six days after skin sensitization, the mice were fasted overnight, anesthetized with ketamine and xylazine administered IP, and a 1 mL syringe filled with oxazolone solution, was inserted carefully ˜3.8 cm into the colon of the mouse. Animals were kept in a head down position and oxazolone (0.5 mg/50 μL/mouse in 50% ethanol) or 50% ethanol/saline was rectally instilled very slowly over a minute. The mice were held vertically (head down) for another minute to ensure that the entire oxazolone solution remained inside the colon. Drug treatment (PO, BID or TID) or vehicle was initiated the evening prior to the oxazolone intrarectal (IR) challenge. On both first (Day 1) and second (Day 2) days post-oxazolone IR challenge, the Disease Activity Index (DAI) was assessed by treatment-blinded experimenters for each mouse, according to the following subscores: stool consistency (0, normal; 2, loose; 4, diarrhea), gross bleeding and hemoccult test (0, absence; 2, blood tinged; 4, overt blood presence), and weight loss (0, none; 1, 1%-5%; 2, 6%-10%; 3, 11%-15%; 4, more than 15%); DAI=average of (stool consistency+blood presence+weight loss scores).
An area-under-the-curve (AUC) calculation based on total DAI scores was performed to track disease progression during the course of the experiment. AUC for each experimental group was calculated as: AUC=[(Day 1−Day 0)*Average (DAI Score of Day 0 & Day 1)]+[(Day 2−Day 1)*Average (DAI Score of Day 1 & Day 2)]. A Student's t-test compared the DAI AUC score of the vehicle/vehicle and vehicle/oxazolone groups to evaluate whether disease was induced following oxazolone treatment. This was followed by a one way ANOVA, with Dunnett's post hoc test, to compare the DAI AUC score of the vehicle/oxazolone and test compound/oxazolone groups. Statistical significance was defined by an α level set at p<0.05.

[3] = Rat colon fecal homogenate stability; assay type: in vitro ADME; details: male, rat colon fecal homogenate supernatant, read-out: T½ (In vitro colonic stability, loss of pro-drug)
Description: The objective of this study was to determine the stability of the present compounds in rat colon fecal homogenate, i.e. the half-life for decomposition in the presence of the β-glucuronidase in rat colon feces.
Following sacrifice of a naïve male rat (˜300 g) by cardiac puncture exsanguination, the colon was ligated and removed to an anaerobic chamber (AS-580, Anaerobe Systems). The fecal content was removed within the chamber and was diluted 1:10 (1 gram to 9 mL phosphate buffer) and then homogenized using a handheld Omni Tissue Master. The fecal homogenate was centrifuged at 2000 g for 10 min to remove bulk and the supernatant was removed and used for the incubations.
Test articles and a positive control (sulfasalazine) were prepared as 10 mM DMSO stocks. The final substrate concentration of each assay was 10 μM (30 μM for compound 5). Reactions were started by adding a 5 μL aliquot of diluted test compound stock into 300 μL of rat fecal supernatant-homogenate. At 0, 15, 30, 60, 90, and 120 min post reaction initiation, a 50 μL aliquot was removed into 200 μL of acetonitrile with 3% formic acid and an internal standard molecule. All samples were centrifuged at 2000 g for 10 min after which 50 μL of supernatant was diluted into 150 μL of water for analysis on an LC-MS system. In vitro half-lives for loss of pro-drug were calculated as follows: (T½=0.693/elimination rate constant).

[4] = test system: splenic NK cells; test: Immunosuppression effects in mouse splenic natural killer (NK) cells; assay type: in vivo; details: mouse, oral dosing for three days
Description: Adult male Balb/C mice (12-14 weeks of age) from Harlan were used for the study. […] Spleens were harvested 30 min or 3 h post last dose and crushed immediately for cell subtype staining. Prior to fixation, fluorophore-labelled antibodies for CD19 (FITC; B cells), CD3e (PE; pan T cells) and DX5 (APC; NK cells) were incubated with splenocyte samples from each animal to allow for simultaneous, multiple subtype % analysis on the flow cytometer. The number of total spleen cells for each animal was measured by Scepter™ 2.0 Handheld Automated Cell Counter.
The absolute number of lymphocyte subtype population (e.g., splenic B, T and NK cells) was calculated from the percentage of each subtype times total spleen cells for each animal. A one way ANOVA, with Dunnett's post hoc test, was used to compare the splenic lymphocytes number of the vehicle and test compound groups. The a level was set at p<0.05. Data were presented as the mean SEM for each group.

CN(CCN(C)C(=O)OCc1ccc(O[C@@H]2O[C@H](C(=O)O)[C@@H](O)[C@H](O)[C@H]2O)c([N+](=O)[O-])c1)C(=O)Nc1ccc(O)c(C(=O)O)c1 [Compound C-1]
generation of active metabolite from the pro-drug [1]: failed to generate any measurable amounts

C[C@@H]1CCN(C(=O)CC#N)C[C@@H]1N(C)c1ncnc2c1ccn2C(=O)N(C)CCN(C)C(=O)OCc1ccc(O[C@@H]2O[C@H](C(=O)O)[C@@H](O)[C@H](O)[C@H]2O)cc1 [Compound 4, (2S,3S,4S,5R,6S)-6-(4-((((2-(4-(((3R,4R)-1-(2-cyanoacetyl)-4-methylpiperidin-3-yl)(methyl)amino)-N-methyl-7H-pyrrolo[2,3-d]pyrimidine-7-carboxamido)ethyl)(methyl)carbamoyl)oxy)methyl)phenoxy)-3,4,5-trihydroxytetrahydro-2H-pyran-2-carboxylic acid]
reversal of oxazolone-induced colitis (DAI AUC score) ([2]; separate experiment, 3, 10, and 30 mg/kg, PO, BID, similar magnitude to tofacitinib 30 mg/kg): significant reversal
half-life at 10 μM [3]: 1 to 13 min

COc1cc(COC(=O)N(C)CCN(C)C(=O)n2ccc3c(N(C)[C@H]4CN(C(=O)CC#N)CC[C@H]4C)ncnc32)ccc1O[C@@H]1O[C@H](C(=O)O)[C@@H](O)[C@H](O)[C@H]1O [Compound 7, (2S,3S,4S,5R,6S)-6-(4-((((2-(4-(((3R,4R)-1-(2-cyanoacetyl)-4-methylpiperidin-3-yl)(methyl)amino)-N-methyl-7H-pyrrolo[2,3-d]pyrimidine-7-carboxamido)ethyl)(methyl)carbamoyl)oxy)methyl)-2-methoxyphenoxy)-3,4,5-trihydroxytetrahydro-2H-pyran-2-carboxylic acid]
half-life at 10 μM [3]: 3 to 8 min

C[C@@H]1CCN(C(=O)CC#N)C[C@@H]1N(C)c1ncnc2[nH]ccc12 [Tofacitinib, 3-((3R,4R)-4-methyl-3-(methyl(7H-pyrrolo[2,3-d]pyrimidin-4-yl)amino)piperidin-1-yl)-3-oxopropanenitrile, reference compound]
In vivo efficacy (oxazolone colitis), effective dose ([2]; Effective dose that exhibits a comparable pharmacological effect in the oxazolone model compared to its vehicle): 30 mg/kg
Systemic functional activity (splenic NK depletion) [4]: 10 mg/kg

C[C@@H]1CCN(C(=O)CC#N)C[C@@H]1N(C)c1ncnc2c1ccn2C(=O)N(C)CCN(C)C(=O)OCc1ccc(O[C@@H]2O[C@H](C(=O)O)[C@@H](O)[C@H](O)[C@H]2O)c(Cl)c1 [Compound 6, (2S,3S,4S,5R,6S)-6-(2-chloro-4-((((2-(4-(((3R,4R)-1-(2-cyanoacetyl)-4-methylpiperidin-3-yl)(methyl)amino)-N-methyl-7H-pyrrolo[2,3-d]pyrimidine-7-carboxamido)ethyl)(methyl)carbamoyl)oxy)methyl)phenoxy)-3,4,5-trihydroxytetrahydro-2H-pyran-2-carboxylic acid]
half-life at 10 μM [3]: 7 min

Cc1cc(COC(=O)N(C)CCN(C)C(=O)n2ccc3c(N(C)[C@H]4CN(C(=O)CC#N)CC[C@H]4C)ncnc32)ccc1O[C@@H]1O[C@H](C(=O)O)[C@@H](O)[C@H](O)[C@H]1O [Compound 5, (2S,3S,4S,5R,6S)-6-(4-((((2-(4-(((3R,4R)-1-(2-cyanoacetyl)-4-methylpiperidin-3-yl)(methyl)amino)-N-methyl-7H-pyrrolo[2,3-d]pyrimidine-7-carboxamido)ethyl)(methyl)carbamoyl)oxy)methyl)-2-methylphenoxy)-3,4,5-trihydroxytetrahydro-2H-pyran-2-carboxylic acid]
half-life at 30 μM ([3]; 30 μM): 6 min

Cc1cc(S(C)(=O)=O)ncc1-c1ccc2c(c1)cc(-c1cncc(F)c1C)n2C(=O)N(C)CCN(C)C(=O)OCc1ccc(O[C@@H]2O[C@H](C(=O)O)[C@@H](O)[C@H](O)[C@H]2O)c([N+](=O)[O-])c1 [Compound C-2]
generation of active metabolite from the pro-drug [1]: failed to generate any measurable amounts
